Results from patent publication US12122761B2, “2-azaspiro[3.4]octane derivatives as M4 agonists” (NOVARTIS AG, priority 2019, dated 2024).

Legend:
[1] = target: T1, human cloned CHRM3 receptor (M3_CHO cells) (Homo sapiens, UniProt P20309); assay: CHRM3 Ca++ Flux Assay (agonist mode, FDSS 7000EX); type: cell-based; conditions: for EC50: agonist mode, geometric mean if tested more than once, read-out: M3 FDSS EC50
T1 construct: expressed in transfected cells; host or cells: CHO-K1
Procedure: (§1) The above examples were characterized by measuring the intracellular mobilization of Ca++ ions caused by signaling events mediated by the receptor. The Intra-cellular Calcium flux levels were captured by the highly sensitive Ca++ indicator, Calcium Assay Kit (BD Biosciences, Catalog Number 640178). The fluorescent activity from all receptors were monitored by the fluorescent imager, FDSS 7000EX (Hamamatsu) over a span of 3 minutes.
(§2) CHO-K1 cells stably expressing the human cloned CHRM3 receptor (M3_CHO cells) were grown and maintained in a monolayer culture with F12/HAM (Life Technologies) supplemented with 10% Fetal Bovine Serum, 1× Pen-Strep, and 0.4 mg/mL Geneticin in a humidified atmosphere (5% CO2) at 37° C. The cultures were grown to 80-9 0% confluency in T150 flasks (Corning) and washed with 1×DPBS and lifted with 0.05% Trypsin (Life Technologies). The cells were then spun (1K rpm, 3 minutes) and frozen using Recovery Cell Culture Freezing Media (Gibco Technologies). Cells were stored in liquid nitrogen and thawed a day before the assay. A similar procedure was used for cells stably expressing the human cloned CHRM5 receptor (M5_CHO).
(§3) Prior to the day of the assay, stable M3_CHO or M5_CHO cells were thawed and plated on Greiner 384 well black TC treated plates at 12K cells/well in F12/DMEM supplemented with 10% FBS (Hyclone) and kept overnight in a humidified atmosphere (5% CO2) at 37° C. The next day, cells were loaded with Ca^++ dye (BD Biosciences) using Loading Buffer (HBSS +Ca/+Mg, 20 mM HEPES, 2.5 mM Probenecid) and placed back in cell incubator for a minimum of 1 hour. After incubation, the dye was replaced with Assay Buffer (HBSS −Ca/−Mg, 20 mM HEPES, 2.5 mM Probenecid) and kept at room temperature in the dark before running on cell imager. The FDSS 7000EX (Hamamatsu) was used to acquire Ca^++ traces from cells treated with 11 point dose response of compounds in triplicate in order to generate dose response curves in agonist mode. All compounds were serially diluted in DMSO then prepared in Assay Buffer for Ca^++ flux studies. The dose response curves were generated from the average of triplicate wells obtained from each data point and used a non-linear regression of four parameter dose response algorithm. The Percent Activity (PA) was measured to EC100 of Carbachol.

[2] = target: T2, human cloned CHRM5 receptor (M5_CHO) (Homo sapiens, UniProt P08912); assay: CHRM5 Ca++ Flux Assay (agonist mode, FDSS 7000EX); type: cell-based; conditions: Percent Activity measured to EC100 of Carbachol; read-out: M5 FDSS PA
T2 construct: expressed in transfected cells; host or cells: CHO (M5_CHO)
T2 sequence (P08912 1-532): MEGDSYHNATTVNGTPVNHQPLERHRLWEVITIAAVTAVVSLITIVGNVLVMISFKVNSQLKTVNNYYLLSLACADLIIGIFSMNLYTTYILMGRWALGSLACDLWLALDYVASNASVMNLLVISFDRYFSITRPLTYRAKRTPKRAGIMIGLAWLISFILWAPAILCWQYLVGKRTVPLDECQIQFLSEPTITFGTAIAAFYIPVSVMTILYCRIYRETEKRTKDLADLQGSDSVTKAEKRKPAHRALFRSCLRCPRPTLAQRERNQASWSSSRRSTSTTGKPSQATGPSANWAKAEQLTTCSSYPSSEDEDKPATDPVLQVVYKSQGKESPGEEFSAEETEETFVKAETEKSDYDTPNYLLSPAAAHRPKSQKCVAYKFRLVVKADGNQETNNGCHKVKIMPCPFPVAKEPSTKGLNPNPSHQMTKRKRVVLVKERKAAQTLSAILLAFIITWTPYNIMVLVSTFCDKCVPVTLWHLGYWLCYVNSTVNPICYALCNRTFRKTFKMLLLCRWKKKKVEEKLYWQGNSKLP
Procedure: as §1, §2, §3

[3] = system: hyperactivity in mice induced by the stimulant d-amphetamine; conditions: general statement on clinically efficacious muscarinic antipsychotics; xanomeline used as positive control (1.0 mg/kg, SC); cited from earlier work
[4] = Percent Activity measured to EC100 of Carbachol

T1 sequence (P20309 whole entry): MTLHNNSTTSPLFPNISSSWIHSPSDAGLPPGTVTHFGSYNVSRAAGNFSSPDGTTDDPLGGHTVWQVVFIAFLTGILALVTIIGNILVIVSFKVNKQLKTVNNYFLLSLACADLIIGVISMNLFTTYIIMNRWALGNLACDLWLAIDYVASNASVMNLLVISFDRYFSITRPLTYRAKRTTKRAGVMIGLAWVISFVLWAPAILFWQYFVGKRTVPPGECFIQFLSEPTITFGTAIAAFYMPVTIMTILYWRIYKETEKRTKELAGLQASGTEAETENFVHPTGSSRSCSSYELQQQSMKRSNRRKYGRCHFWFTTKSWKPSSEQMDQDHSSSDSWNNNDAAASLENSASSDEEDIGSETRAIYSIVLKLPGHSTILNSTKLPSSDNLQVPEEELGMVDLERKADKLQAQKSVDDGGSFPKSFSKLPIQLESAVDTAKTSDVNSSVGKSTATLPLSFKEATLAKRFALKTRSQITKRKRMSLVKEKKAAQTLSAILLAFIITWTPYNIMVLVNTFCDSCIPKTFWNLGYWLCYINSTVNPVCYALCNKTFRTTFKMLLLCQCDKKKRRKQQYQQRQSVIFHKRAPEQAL

SMILES | M3 FDSS PA [1, 4] | EC50 [1] | Emax ([1]; Percent Activity measured to EC100 of Carbachol, read-out: M3 FDSS PA) | Emax [2] | activity in the amphetamine induced hyperlocomotion assay [3]
COc1ccccc1C1CCN([C@H]2CCC3(C2)CN(C(=O)C2COC2)C3)CC1 (single isomer, unassigned) [Example 8C, (S)-(6-(4-(2-methoxyphenyl)piperidin-1-yl)-2-azaspiro[3.4]octan-2-yl)(oxetan-3-yl)methanone or (R)-(6-(4-(2-methoxyphenyl)piperidin-1-yl)-2-azaspiro[3.4]octan-2-yl)(oxetan-3-yl)methanone] | 0% | > 25 µM | – | – | –
COc1ccccc1C1CCN([C@H]2CCC3(C2)CN(C(=O)C2COC2)C3)CC1 (single isomer, unassigned) [Example 8D, (S)-(6-(4-(2-methoxyphenyl)piperidin-1-yl)-2-azaspiro[3.4]octan-2-yl)(oxetan-3-yl)methanone or (R)-(6-(4-(2-methoxyphenyl)piperidin-1-yl)-2-azaspiro[3.4]octan-2-yl)(oxetan-3-yl)methanone] | 0% | > 25 µM | – | – | –
COc1cc(F)ccc1C1CCN([C@@H]2CCC3(C2)CN(C(=O)C2COC2)C3)CC1 [Example 6C, (R)-(6-(4-(4-fluoro-2-methoxyphenyl)piperidin-1-yl)-2-azaspiro[3.4]octan-2-yl)(oxetan-3-yl)methanone] | – | – | 0% | 0% | –
CCCCCCOc1nsnc1C1=CCCN(C)C1 [xanomeline] | – | – | – | – | active
